These results are taken from ChEMBL document CHEMBL6078693, “Move over COVID, Tuberculosis Is Once again the Leading Cause of Death from a Single Infectious Disease” (J Med Chem, 2024).

Experiment [1] has as its system Mycobacterium tuberculosis. The experiment is described as follows: Antimycobacterial activity against Mycobacterium tuberculosis. In kind it is functional, organism-based.
Experiment [2] has as its system Mycobacterium tuberculosis. Nature of the experiment: Antimycobacterial activity against Mycobacterium tuberculosis H37Rv assessed as reduction in bacterial growth incubated for 7 days by resazurin dye based assay. In kind it is functional. Particulars: 168 h, time 7 day.

Values after ≈ are worked out from the molar mass of the structure shown.

A word on the IC50: it is the concentration that gives 50% inhibition. A higher IC50 goes with lower potency. Broadly, the MIC is the lowest concentration that inhibits growth of the organism. In experiment [1], `NC[C@H]1OB(O)c2c(OCCO)ccc(Cl)c21` [GANFEBOROLE] displayed an IC50 of 200 nM. Moreover, the MIC in experiment [2] is 0.08 µM (≈ 0.0206 µg/mL).
